The values below come from patent publication US20240032541A1, “HERBICIDAL COMPOUNDS” (SYNGENTA CROP PROTECTION AG, priority 2020, published 2024).

Common to all, as to assay type: in vivo
The subject of test [1] is Echinochloa crus-galli (ECHCG). As to the kind of experiment: Post-emergence herbicide glasshouse test. As to conditions: post-emergence (sprayed after 8 days cultivation), 250 g/ha, evaluated after 13 days. How it is done:
(§1) Seeds of a variety of test species are sown in standard soil in pots Amaranthus retoflexus (AMARE), Echinochloa crus-galli (ECHCG), Setaria faberi (SETFA)). After cultivation for one day (pre-emergence) or after 8 days cultivation (post-emergence) under controlled conditions in a glasshouse (at 24/16° C., day/night; 14 hours light; 65% humidity), the plants are sprayed with an aqueous spray solution derived from the formulation of the technical active ingredient in acetone/water (50:50) solution containing 0.5% Tween 20 (polyoxyethelyene sorbitan monolaurate, CAS RN 9005-64-5). Compounds are applied at 250 g/ha unless otherwise stated. The test plants are then grown in a glasshouse under controlled conditions in a glasshouse (at 24/16° C., day/night; 14 hours light; 65% humidity) and watered twice daily. After 13 days for pre and post-emergence, the test is evaluated for the percentage damage caused to the plant. The biological activities are shown in the following table on a five-point scale (5=81-100%; 4=61-80%; 3=41-60%; 2=21-40%; 1=0-20%).

Test [2] concerns Amaranthus retoflexus (AMARE). Description: Post-emergence herbicide glasshouse test. As to conditions: post-emergence (sprayed after 8 days cultivation), 250 g/ha, evaluated after 13 days. How it is done: as §1
For test [3], the system named is Setaria faberi (SETFA). Description: Post-emergence herbicide glasshouse test. As to conditions: post-emergence (sprayed after 8 days cultivation), 250 g/ha, evaluated after 13 days. How it is done: as §1
The test system of test [4] is Echinochloa crus-galli (ECHCG). As to the kind of experiment: Pre-emergence herbicide glasshouse test. As to conditions: pre-emergence (sprayed after one day cultivation), 250 g/ha, evaluated after 13 days. How it is done: as §1
Test [5] relates to Amaranthus retoflexus (AMARE). As to the kind of experiment: Pre-emergence herbicide glasshouse test. As to conditions: pre-emergence (sprayed after one day cultivation), 250 g/ha, evaluated after 13 days. Here is the method:
as §1

Test [6] concerns Setaria faberi (SETFA). Description: Pre-emergence herbicide glasshouse test. As to conditions: pre-emergence (sprayed after one day cultivation), 250 g/ha, evaluated after 13 days. Here is the method:
as §1

For the molecule `Cc1cnc(Oc2cccc3nc(C(F)(F)F)nc(CCCC(F)(F)F)c23)nc1` [Compound 1.020], the “percentage damage caused to the plant, five-point scale, ECHCG” value (“percentage damage caused … ECHCG” below) in test [1] and in test [4] was 5 (5=81-100%) in each case. The “percentage damage caused to the plant, five-point scale, AMARE” value (“percentage damage caused … AMARE” for short) in test [2] was 4 (4=61-80%); in test [5] it was 5 (5=81-100%). In addition, the “percentage damage caused to the plant, five-point scale, SETFA” value (from here on “percentage damage caused … SETFA”) in the test with Setaria faberi (SETFA) [3] and in the test with Setaria faberi (SETFA) [6] was 5 (5=81-100%) throughout.
On to `Cc1ccc(Oc2ncc(Cl)cn2)c2c(CCCC(F)(F)F)nc(C(F)(F)F)nc12` [Compound 1.046, 5-(5-chloropyrimidin-2-yl)oxy-8-methyl-4-(4,4,4-trifluorobutyl)-2-(trifluoromethyl)quinazoline], for which the entries for the “percentage damage caused … ECHCG” value in test [1] and in test [4] were 3 (3=41-60%) and 2 (2=21-40%), respectively. Further, the “percentage damage caused … AMARE” value is 4 (4=61-80%) in test [2] and 2 (2=21-40%) in test [5]. The entries for the “percentage damage caused … SETFA” value with Setaria faberi (SETFA) [3] and in the test on Setaria faberi (SETFA) [6] were 2 (2=21-40%) and 3 (3=41-60%), respectively.
Regarding `FC(F)Oc1cnc(Oc2cccc3nc(C(F)(F)F)nc(CCCC(F)(F)F)c23)nc1` [Compound 1.027], the results for the “percentage damage caused … ECHCG” value in test [1] and in test [4] were 1 (1=0-20%) and 2 (2=21-40%), respectively. Also, the “percentage damage caused … AMARE” value in test [2] is given as 4 (4=61-80%); in test [5] it was 3 (3=41-60%). Further, the results for the “percentage damage caused … SETFA” value with Setaria faberi (SETFA) [3] and in the test with Setaria faberi (SETFA) [6] were 1 (1=0-20%) and 0, respectively.
On to `COc1nc(CCCC(F)(F)F)c2c(Oc3ncc(Cl)cn3)cccc2n1` [Compound 1.014, 5-(5-chloropyrimidin-2-yl)oxy-2-methoxy-4-(4,4,4-trifluorobutyl)quinazoline], for which the “percentage damage caused … ECHCG” value in test [1] and in test [4] was 5 (5=81-100%) throughout. Further, the “percentage damage caused … AMARE” value in test [2] and in test [5] was 5 (5=81-100%) throughout. In addition, the “percentage damage caused … SETFA” value in the test with Setaria faberi (SETFA) [3] and with Setaria faberi (SETFA) [6] was 5 (5=81-100%) throughout.
As for `CCCc1nc(CCCC(F)(F)F)c2c(Oc3ncc(Cl)cn3)cccc2n1` [Compound 1.033], the figures for the “percentage damage caused … ECHCG” value in test [1] and in test [4] were 3 (3=41-60%) and 5 (5=81-100%), respectively. The “percentage damage caused … AMARE” value is listed as 4 (4=61-80%) in test [2] and 2 (2=21-40%) in test [5]. The “percentage damage caused … SETFA” value with Setaria faberi (SETFA) [3] is 3 (3=41-60%); in the test with Setaria faberi (SETFA) [6] it was 5 (5=81-100%).
Take `FC(F)(F)CCCc1cc(C(F)(F)F)nc2cccc(Oc3ncc(Cl)cn3)c12` [Compound 1.015, 5-(5-chloropyrimidin-2-yl)oxy-4-(4,4,4-trifluorobutyl)-2-(trifluoromethyl)quinoline]: the “percentage damage caused … ECHCG” value is reported as 4 (4=61-80%) in test [1] and 5 (5=81-100%) in test [4]. For the same molecule, the “percentage damage caused … AMARE” value in test [2] and in test [5] was 5 (5=81-100%) each time. For the same molecule, the figures for the “percentage damage caused … SETFA” value in the test on Setaria faberi (SETFA) [3] and in the test with Setaria faberi (SETFA) [6] were 4 (4=61-80%) and 5 (5=81-100%), respectively.
As for `CCCCCCc1nc(CCCC(F)(F)F)c2c(Oc3ncc(Cl)cn3)cccc2n1` [Compound 1.032], the entries for the “percentage damage caused … ECHCG” value in test [1] and in test [4] were 3 (3=41-60%) and 4 (4=61-80%), respectively. Also, the figures for the “percentage damage caused … AMARE” value in test [2] and in test [5] were 5 (5=81-100%) and 4 (4=61-80%), respectively. The “percentage damage caused … SETFA” value with Setaria faberi (SETFA) [3] is given as 3 (3=41-60%); in the test with Setaria faberi (SETFA) [6], 4 (4=61-80%).
As for `FC(F)(F)CCc1nc(C(F)(F)F)nc2cccc(Oc3ncc(Cl)cn3)c12` [Compound 1.022], the “percentage damage caused … ECHCG” value is given as 4 (4=61-80%) in test [1] and 5 (5=81-100%) in test [4]. Also, the “percentage damage caused … AMARE” value is recorded as 4 (4=61-80%) in test [2] and 5 (5=81-100%) in test [5]. For the same molecule, the results for the “percentage damage caused … SETFA” value in the test with Setaria faberi (SETFA) [3] and in the test with Setaria faberi (SETFA) [6] were 4 (4=61-80%) and 5 (5=81-100%), respectively.
Turning to `COc1cnc(Oc2cccc3nc(C(F)(F)F)nc(CCCC(F)(F)F)c23)nc1` [Compound 1.026], the figures for the “percentage damage caused … ECHCG” value in test [1] and in test [4] were 3 (3=41-60%) and 4 (4=61-80%), respectively. Besides, the “percentage damage caused … AMARE” value in test [2] is 4 (4=61-80%); in test [5], 2 (2=21-40%). Besides, the “percentage damage caused … SETFA” value in the test with Setaria faberi (SETFA) [3] and in the test on Setaria faberi (SETFA) [6] was 4 (4=61-80%) each time.
`FC(F)(F)CCCc1nc(C2CC2)nc2cccc(Oc3ncc(Cl)cn3)c12` [Compound 1.036]: the “percentage damage caused … ECHCG” value in test [1] was 3 (3=41-60%); in test [4], 4 (4=61-80%). Further, the “percentage damage caused … AMARE” value in test [2] is reported as 4 (4=61-80%); in test [5], 2 (2=21-40%). The “percentage damage caused … SETFA” value is 2 (2=21-40%) with Setaria faberi (SETFA) [3] and 5 (5=81-100%) with Setaria faberi (SETFA) [6].
As to `FC(F)(F)CCCc1nc(Br)nc2cccc(Oc3ncc(Cl)cn3)c12` [Compound 1.029], the “percentage damage caused … ECHCG” value in test [1] and in test [4] was 1 (1=0-20%) in each case. Besides, the “percentage damage caused … AMARE” value is 4 (4=61-80%) in test [2] and 1 (1=0-20%) in test [5]. In addition, the “percentage damage caused … SETFA” value is 2 (2=21-40%) with Setaria faberi (SETFA) [3] and 4 (4=61-80%) in the test on Setaria faberi (SETFA) [6].
On to `FC(F)(F)CCCc1cccc2cccc(Oc3ncc(Cl)cn3)c12` [Compound 1.002, 5-chloro-2-[[8-(4,4,4-trifluorobutyl)-1-naphthyl]oxy]pyrimidine], for which the “percentage damage caused … ECHCG” value in test [1] is 2 (2=21-40%); in test [4] it was 1 (1=0-20%). In addition, the “percentage damage caused … AMARE” value in test [2] is on record as 3 (3=41-60%); in test [5], 1 (1=0-20%). In addition, the “percentage damage caused … SETFA” value is 3 (3=41-60%) in the test with Setaria faberi (SETFA) [3] and 1 (1=0-20%) with Setaria faberi (SETFA) [6].
